US8889712B2, “IAP antagonists” (Bristol-Myers Squibb Company, priority 2012, dated 2014)
Where two headings read alike, the source gives them in different places.

Legend:
XIAP BIR2-3 = biological target: T1, XIAP BIR2-3 (Homo sapiens, UniProt P98170, C202A/C213G); test: XIAP-BIR2-3 dimeric SMAC Peptide Homogeneous Time Resolved Fluorescence (HTRF) Assay; format: binding
T1 construct: His-BIR2-3 (125-356, C202A/C213G, XIAP)
Method: B. […] Assays were performed in black, flat-bottom, 384-well plates. […] Compounds were dissolved at 3 mM in dimethylsulfoxide (DMSO) and evaluated at eleven serially diluted concentrations. IC50 and Ki values were derived by non-linear regression analysis.

XIAP BIR3 = biological target: T2, XIAP BIR3 (Homo sapiens, UniProt P98170); test: XIAP-BIR3/SMAC Homogeneous Time Resolved Fluorescence (HTRF) Assay; format: binding
T2 construct: His-BIR3 (241-356, XIAP)
Procedure, shortened: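 Competition HTRF between XIAP-BIR3 and SMAC; reaction 60 min at room temperature, then anti-6×His-terbium Fab detection for a further 30 min.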

[1] = 0.5 nM N-His-BIR2-3 (125-356, C202A/C213G, XIAP), 20 nM fluorescein labeled dimeric SMAC peptide, HTRF signal, read-out: XIAP BIR2-3 IC50
[2] = 1 nM N-His-BIR3 (241-356, XIAP), 5 nM fluorescein labeled SMAC peptide, HTRF signal, read-out: XIAP BIR3 IC50

T2 sequence (P98170 241-356): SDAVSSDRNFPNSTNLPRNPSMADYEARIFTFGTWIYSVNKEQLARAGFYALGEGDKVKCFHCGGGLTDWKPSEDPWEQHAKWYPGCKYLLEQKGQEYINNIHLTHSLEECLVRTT
T1 sequence (P98170 125-356 C202A/C213G): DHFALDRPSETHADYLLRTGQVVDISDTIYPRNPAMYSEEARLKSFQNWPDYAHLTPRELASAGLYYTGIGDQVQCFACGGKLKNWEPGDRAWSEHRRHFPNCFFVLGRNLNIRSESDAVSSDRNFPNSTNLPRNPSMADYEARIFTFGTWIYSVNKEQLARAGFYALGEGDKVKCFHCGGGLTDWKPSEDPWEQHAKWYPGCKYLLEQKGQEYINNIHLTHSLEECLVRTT

| Compound | IC50 (XIAP BIR2-3) [nM] | IC50 (XIAP BIR3) [nM] | IC50 (XIAP BIR2-3; [1]) [nM] | IC50 (XIAP BIR3; [2]) [nM] |
| --- | --- | --- | --- | --- |
| CN[C@@H](C)C(=O)N[C@H](C(=O)N1Cc2cc(C(=O)N[C@H]3C[C@@H](C(=O)N[C@@H]4CCCc5ccccc54)N(C(=O)[C@@H](NC(=O)[C@H](C)NC)C(C)(C)C)C3)ccc2C[C@H]1C(=O)N[C@@H]1CCCc2ccccc21)C(C)(C)C [Example 1, (S)-2-((S)-3,3-Dimethyl-2-((S)-2-(methylamino)propanamido)butanoyl)-N^7-((3S,5S)-1-((S)-3,3-dimethyl-2-((S)-2-(methylamino)propanamido)butanoyl)-5-(((R)-1,2,3,4-tetrahydronaphthalen-1-yl)carbamoyl)pyrrolidin-3-yl)-N^3—((R)-1,2,3,4-tetrahydronaphthalen-1-yl)-1,2,3,4-tetrahydroisoquinoline-3,7-dicarboxamide] | 3 | 11 |  |  |
| CN[C@@H](C)C(=O)N[C@H](C(=O)N1C[C@@H](c2ccc3c(c2)CN(C(=O)[C@@H](NC(=O)[C@H](C)NC)C(C)(C)C)[C@H](C(=O)N[C@@H]2CCCc4ccccc42)C3)C[C@H]1C(=O)N[C@@H](Cc1ccccc1)c1noc(C)n1)C(C)(C)C [Example 80, (S)-2-((S)-3,3-Dimethyl-2-((S)-2-(methylamino)propanamido)butanoyl)-7-((3R,5S)-1-((S)-3,3-dimethyl-2-((S)-2-(methylamino)propanamido)butanoyl)-5-(((S)-1-(5-methyl-1,2,4-oxadiazol-3-yl)-2-phenylethyl)carbamoyl)pyrrolidin-3-yl)-N—((R)-1,2,3,4-tetrahydronaphthalen-1-yl)-1,2,3,4-tetrahydroisoquinoline-3-carboxamide] |  |  | 2.6 | 7.3 |
| CCN[C@@H](C)C(=O)N[C@H](C(=O)N1Cc2cc(C(=O)N[C@H]3C[C@@H](C(=O)N[C@@H]4CCCc5ccccc54)N(C(=O)[C@@H](NC(=O)[C@H](C)NC)C(C)(C)C)C3)ccc2C[C@H]1C(=O)N[C@@H]1CCCc2ccccc21)C(CC)CC [Example 18, (S)-N^7-((3S,5S)-1-((S)-3,3-Dimethyl-2-((S)-2-(methylamino)propanamido)butanoyl)-5-(((R)-1,2,3,4-tetrahydronaphthalen-1-yl)carbamoyl)pyrrolidin-3-yl)-2-((S)-3-ethyl-2-((S)-2-(ethylamino)propanamido)pentanoyl)-N^3-((R)-1,2,3,4-tetrahydronaphthalen-1-yl)-1,2,3,4-tetrahydroisoquinoline-3,7-dicarboxamide] |  |  | 4 | 9 |
| CN[C@@H](C)C(=O)N[C@H](C(=O)N1C[C@@H](c2ccc3c(c2)CN(C(=O)[C@@H](NC(=O)[C@H](C)NC)C(C)(C)C)[C@H](C(=O)N[C@@H]2CCCc4ccccc42)C3)C[C@H]1C(=O)N[C@@H](Cc1ccccc1)C(=O)N(C1CC1)C1CC1)C(C)(C)C [Example 63, (S)-7-((3R,5S)-5-(((S)-1-(Dicyclopropylamino)-1-oxo-3-phenylpropan-2-yl)carbamoyl)-1-((S)-3,3-dimethyl-2-((S)-2-(methylamino)propanamido)butanoyl)pyrrolidin-3-yl)-2-((S)-3,3-dimethyl-2-((S)-2-(methylamino)propanamido)butanoyl)-N-((R)-1,2,3,4-tetrahydronaphthalen-1-yl)-1,2,3,4-tetrahydroisoquinoline-3-carboxamide] |  |  | 3 | 16.7 |
| CN[C@@H](C)C(=O)N[C@H](C(=O)N1C[C@@H](c2ccc3c(c2)CN(C(=O)[C@@H](NC(=O)[C@H](C)NC)C(C)(C)C)[C@H](C(=O)N[C@@H]2CCCc4ccccc42)C3)C[C@H]1C(=O)N[C@@H](Cc1ccccc1)c1nnc(C)o1)C(C)(C)C [Example 79, (S)-2-((S)-3,3-Dimethyl-2-((S)-2-(methylamino)propanamido)butanoyl)-7-((3R,5S)-1-((S)-3,3-dimethyl-2-((S)-2-(methylamino)propanamido)butanoyl)-5-(((S)-1-(5-methyl-1,3,4-oxadiazol-2-yl)-2-phenylethyl)carbamoyl)pyrrolidin-3-yl)-N—((R)-1,2,3,4-tetrahydronaphthalen-1-yl)-1,2,3,4-tetrahydroisoquinoline-3-carboxamide] |  |  | 3.4 | 16.7 |
| CN[C@@H](C)C(=O)N[C@H](C(=O)N1Cc2cc(C(=O)N[C@H]3C[C@@H](C(=O)N[C@@H]4CCCc5ccccc54)N(C(=O)[C@@H](NC(=O)[C@H](C)NC)C(C)(C)C)C3)ccc2C[C@H]1C(=O)N[C@@H]1CCCc2ccccc21)C1CCCC1 [Example 12, (S)-2-((S)-2-Cyclopentyl-2-((S)-2-(methylamino)propanamido)acetyl)-N^7-((3S,5S)-1-((S)-3,3-dimethyl-2-((S)-2-(methylamino)propanamido)butanoyl)-5-(((R)-1,2,3,4-tetrahydronaphthalen-1-yl)carbamoyl)pyrrolidin-3-yl)-N^3-((R)-1,2,3,4-tetrahydronaphthalen-1-yl)-1,2,3,4-tetrahydroisoquinoline-3,7-dicarboxamide] |  |  | 15 | 19 |
| CN[C@@H](C)C(=O)N[C@H](C(=O)N1C[C@@H](c2ccc3c(c2)CN(C(=O)[C@@H](NC(=O)[C@H](C)NC)C(C)(C)C)[C@H](C(=O)N[C@@H]2CCCc4ccccc42)C3)C[C@H]1C(=O)N[C@H](COC)Cc1ccccc1)C(C)(C)C [Example 75, (S)-2-((S)-3,3-Dimethyl-2-((S)-2-(methylamino)propanamido)butanoyl)-7-((3R,5S)-1-((S)-3,3-dimethyl-2-((S)-2-(methylamino)propanamido)butanoyl)-5-(((S)-1-methoxy-3-phenylpropan-2-yl)carbamoyl)pyrrolidin-3-yl)-N-((R)-1,2,3,4-tetrahydronaphthalen-1-yl)-1,2,3,4-tetrahydroisoquinoline-3-carboxamide] |  |  | 3 | 14.5 |
| CN[C@@H](C)C(=O)N[C@H](C(=O)N1C[C@@H](c2ccc3c(c2)CN(C(=O)[C@@H](NC(=O)[C@H](C)NC)C(C)(C)C)[C@H](C(=O)N[C@@H]2CCCc4ccccc42)C3)C[C@H]1C(=O)N[C@@H](Cc1ccccc1)C(=O)Nc1ccc(-c2cnco2)cc1)C(C)(C)C [Example 57, (S)-2-((S)-3,3-Dimethyl-2-((S)-2-(methylamino)propanamido)butanoyl)-7-((3R,5S)-1-((S)-3,3-dimethyl-2-((S)-2-(methylamino)propanamido)butanoyl)-5-(((S)-1-((4-(oxazol-5-yl)phenyl)amino)-1-oxo-3-phenylpropan-2-yl)carbamoyl)pyrrolidin-3-yl)-N-((R)-1,2,3,4-tetrahydronaphthalen-1-yl)-1,2,3,4-tetrahydroisoquinoline-3-carboxamide] |  |  | 2.6 | 9.9 |
| CN[C@@H](C)C(=O)N[C@H](C(=O)N1Cc2cc(C(=O)N[C@H]3C[C@@H](C(=O)NC4CCCc5ccccc54)N(C(=O)[C@@H](NC(=O)[C@H](C)NC)C(C)(C)C)C3)ccc2C[C@H]1C(=O)NC1CCCc2ccccc21)C1CCOCC1 (some centres unmarked) [Example 13] |  |  | 2 | 6 |
| CN[C@@H](C)C(=O)N[C@H](C(=O)N1CC(c2ccc3c(c2)CN(C(=O)[C@@H](NC(=O)[C@H](C)NC)C(C)(C)C)[C@H](C(=O)NC2CCCc4ccccc42)C3)C[C@H]1C(=O)NC(Cc1ccccc1)C(=O)Nc1ccc(F)cc1)C(C)(C)C (stereo in doubt) [Example 71, (S)-2-((S)-3,3-Dimethyl-2-((S)-2-(methylamino)propanamido)butanoyl)-7-((3S,5S)-1-((S)-3,3-dimethyl-2-((S)-2-(methylamino)propanamido)butanoyl)-5-(((S)-1-((4-fluorophenyl)amino)-1-oxo-3-phenylpropan-2-yl)carbamoyl)pyrrolidin-3-yl)-N-((R)-1,2,3,4-tetrahydronaphthalen-1-yl)-1,2,3,4-tetrahydroisoquinoline-3-carboxamide] |  |  | 1.5 | 5.6 |
| CN[C@@H](C)C(=O)N[C@H](C(=O)N1C[C@@H](c2ccc3c(c2)CN(C(=O)[C@@H](NC(=O)[C@H](C)NC)C(C)(C)C)[C@H](C(=O)N[C@@H]2CCCc4ccccc42)C3)C[C@H]1C(=O)N[C@@H](Cc1ccccc1)C(=O)OC)C(C)(C)C [Example 76, (S)-Methyl 2-((2S,4R)-1-((S)-3,3-dimethyl-2-((S)-2-(methylamino)propanamido)butanoyl)-4-((S)-2-((S)-3,3-dimethyl-2-((S)-2-(methylamino)propanamido)butanoyl)-3-(((R)-1,2,3,4-tetrahydronaphthalen-1-yl)carbamoyl)-1,2,3,4-tetrahydroisoquinolin-7-yl)pyrrolidine-2-carboxamido)-3-phenylpropanoate] | 2.5 | 18.9 |  |  |
| CN[C@@H](C)C(=O)N[C@H](C(=O)N1Cc2cc([C@H]3C[C@@H](C(=O)N[C@H](COC)Cc4ccccc4)N(C(=O)[C@@H](NC(=O)[C@H](C)NC)C(C)(C)C)C3)ccc2C[C@H]1C(=O)N[C@H](COC)Cc1ccccc1)C(C)(C)C [Example 84, (S)-2-((S)-3,3-Dimethyl-2-((S)-2-(methylamino)propanamido)butanoyl)-7-((3R,5S)-1-((S)-3,3-dimethyl-2-((S)-2-(methylamino)propanamido)butanoyl)-5-(((S)-1-methoxy-3-phenylpropan-2-yl)carbamoyl)pyrrolidin-3-yl)-N-((S)-1-methoxy-3-phenylpropan-2-yl)-1,2,3,4-tetrahydroisoquinoline-3-carboxamide] |  |  | 8.1 | 31.4 |
| (S)-2-((S)-3-Cyclopentyl-2-((S)-2-(methylamino) propanamido)propanoyl)-N^7-((3S,5S)-1-((S)-3,3-dimethyl-2- ((S)-2-(methylamino)propanamido)butanoyl)-5-(((R)-1,2,3,4- tetrahydronaphthalen-1-yl)carbamoyl)pyrrolidin-3-yl)-N^3- ((R)-1,2,3,4-tetrahydronaphthalen-1-yl)-1,2,3,4- tetrahydroisoquinoline-3,7-dicarboxamide [Example 6] |  |  | 2 | 14 |
